Like-named read-outs stand apart in the source and are kept apart here.
Tests used:
[1] = test system: CD4+ T cells co-cultured with HD-MY-Z cells; experiment: T-bet and GATA-3 expression in co-cultured CD4+ T cells (QPCR); type: cell-based, human; details: CD4+ cells after 24-48 hours co-culture, Gal1 shRNA versus SCR shRNA HD-MY-Z; FIG. 3C
Experimental: 3. Analyses of T-bet and GATA-3 expression in co-cultured CD4^+ T cells. After PHA-activated T-cells were co-cultured with HD-MY-Z cells expressing either scrambled shRNA or Gal1 specific shRNA for 24-48 hours, cells were collected and non-viable cells were depleted by Ficoll-Hypaque gradient centrifugation. Remaining viable cells were washed, incubated with CD4 MACS microbeads and purified using a MACS LS column according to the manufacturer's protocol (Miltenyi Biotec). Thereafter, RNA was obtained from the isolated CD4^+ cells and cDNA was synthesized from total RNA (3 μg) as described above. GATA-3, T-bet and GAPDH (housekeeping control) transcript abundance was evaluated by QPCR using Power SYBR green PCR Master Mix (Applied Biosystems, Foster City, Calif.), GAPDH primers listed above and the following GATA3 and T-bet primers: GATA3, Forward: […] (SEQ ID NO: 14); GATA3, Reverse: ACACCTGGCTCCCGTGGT (SEQ ID NO: 15); T-bet, Forward: […] (SEQ ID NO: 16); T-bet, Reverse: […] (SEQ ID NO: 17). PCR and transcript abundance analysis was performed as described above. GATA-3 and T-bet expression in purified CD4^+ cells from SCR shRNA and Gal1 shRNA HD-MY-Z/T-cell cocultures were then compared.

[2] = test system: activated T cells co-cultured with HD-MY-Z cells; experiment: Viable T cells after co-culture with Gal1 shRNA or SCR shRNA HD-MY-Z cHL cells (Annexin-V, CD3, CD4 flow cytometry); type: cell-based, human; details: PHA-activated T cells, 6 hours co-culture, Gal1 shRNA versus SCR shRNA HD-MY-Z; FIG. 3B
Experimental: 1. Co-culture. Peripheral blood mononuclear cells (PBMCs) were obtained from normal blood donors by Ficoll-Hypaque (GE Healthcare) gradient centrifugation. Thereafter, T cells were purified using Pan T Cell Isolation Kit II (Miltenyi Biotec, Auburn, Calif.) and activated with 1 μg/mL PHA (Sigma-Aldrich) for 64 hours. 1×10^6 of activated T cells were then co-cultured with monolayers (3×10^6 cells) of HD-MY-Z cells expressing either scrambled shRNA or Gal1 specific shRNA for 6 hours at 37° C.
2. Analyses of viable T cells. Following co-culture, all cells were harvested and sequentially stained with CD3-PE and CD4-PE-Cy5 (Beckman Coulter, Fullerton, Calif.) followed by Annexin V-FITC and analyzed with a Beckman Cytomics FC500 flow cytometer. The numbers of viable (annexin V-) and (propidium iodide-) CD3^+ and CD4^+ T cells in Gal1 shRNA or scrambled shRNA HD-MY-Z/T-cell co-cultures were then compared.

[3] = test system: Gal1; experiment: RNA-interference mediated Gal1 knock-down in HD-MY-Z cells (immunoblot); type: cell-based, human; details: HD-MY-Z cells transduced with pSIREN-RetroQ vector; FIG. 3A
Description: DLBCL and cHL cell lines were maintained as previously described (Mathas et al. (2002) Embo J 21, 4104-4113; Polo et al. (2007) Proc Natl Acad Sci USA 104, 3207-3212). Cells were lysed, size-fractionated on NuPAGE Novex 4-12% Bis-Tris Gels (Invitrogen, Carlsbad, Calif.), and transferred to PVDF membranes (Millipore Corp., Bedford, Mass.). Membranes were immunostained with purified Gal1 rabbit IgG (Rubinstein et al. (2004) Cancer Cell 5, 241-251) and HRP-conjugated donkey anti-rabbit antibody (GE Healthcare, Piscataway, N.J.) and developed using a chemiluminescent method (ECL, GE Healthcare).
Gal1 specific siRNA was designed using siRNA Selection Program (Yuan et al. (2004) Nucleic Acids Res 32, W130-134) (available on the World Wide Web at jura.wi.mit.edu/bioc/siRNAext/), synthesized as single-stranded DNA oligonucleotides by Integrated DNA Technologies (IDT, Inc., Coralville, Iowa) and annealed. […]

[4] = test system: HD-MY-Z cells; experiment: Proliferation rate and viability of transduced HD-MY-Z cells; type: cell-based, human; details: after Gal1 knockdown
Description: Gal1 specific siRNA was designed using siRNA Selection Program (Yuan et al. (2004) Nucleic Acids Res 32, W130-134) (available on the World Wide Web at jura.wi.mit.edu/bioc/siRNAext/), synthesized as single-stranded DNA oligonucleotides by Integrated DNA Technologies (IDT, Inc., Coralville, Iowa) and annealed. Gal1-specific oligonucleotide (Gal1 RNAi, […] (SEQ ID NO: 12) or scrambled oligonucleotide (SCR, […] (SEQ ID NO: 13) were ligated into the linearized pSIREN-RetroQ retroviral vector (BD Clontech, Mountain View, Calif.). Generation of recombinant retrovirus and infection of HD-MY-Z cells was performed as previously described (Juszczynski et al. (2006) Mol Cell Biol 26, 5348-5359). After infection, cells were subjected to puromycin selection (0.5 μg/mL) and subcloning by limiting dilution. Thereafter, whole-cell extracts of obtained subclones were prepared and screened for Gal1 expression by immunoblotting as described above.

[5] = test system: activated T cells; experiment: Th2 cytokine production by rGal1-treated activated T cells (cytometric bead array); type: cell-based, human; details: anti-CD3/anti-CD28 activated T cells, rGal1 20 μM, TDG 100 mM, 16 hours; FIG. 3D
Experimental: Recombinant Gal1 was obtained and purified essentially as described (Toscano et al. (2006) J Immunol 176, 6323-6332). T cells were purified as described above and simultaneously activated with anti-CD3-(0.1 μg/mL) and anti-CD28-(0.5 μg/mL) coated latex beads (Invitrogen) and treated with rGal1 (20 μM) in RPMI 1640 medium containing 10% fetal bovine serum and 1 mM β-ME alone or rGal1 and the Gal1 inhibitor, thiodigalactoside (TDG, 100 mM) (Rabinovich et al. (1999) J Exp Med 190, 385-397) or left untreated for 16 hours. Supernatants were then analyzed for IL-4, IL-5, IL-10, and IL-13 using cytometric bead array (CBA) Flex Set beads according to manufacturer's protocol (BD Biosciences, San Jose, Calif.). In brief, multiplexed antibody-conjugated beads were incubated with culture supernatants or serial dilutions of cytokine standards for 1 hour. Thereafter, the PE detection reagent was added and samples were incubated for an additional 2 hours, washed and analyzed using FACS Aria Flow Cytometer (BD Biosciences). Results were captured with FACS Diva software and analyzed with the FCAP1.1 program (BD Biosciences).

[6] = test system: normal activated T-cells; experiment: rGal1-induced apoptosis of activated T cells (FITC-annexin V and PI double staining); type: cell-based, human; details: activated T cells treated with rGal1 in the presence or absence of TDG; FIG. 4
Experimental: Activated T-cells were either untreated or treated with rGal1 in the presence or absence of TDG. Thereafter, apoptosis was assessed by FITC-annexin V and PI double staining. The histograms (left panels) are representative of 3 separate experiments that were averaged to obtain the percent positive cells in the bar graphs (right panels).
Recombinant Gal1 was obtained and purified essentially as described (Toscano et al. (2006) J Immunol 176, 6323-6332). T cells were purified as described above and simultaneously activated with anti-CD3-(0.1 μg/mL) and anti-CD28-(0.5 μg/mL) coated latex beads (Invitrogen) and treated with rGal1 (20 μM) in RPMI 1640 medium containing 10% fetal bovine serum and 1 mM β-ME alone or rGal1 and the Gal1 inhibitor, thiodigalactoside (TDG, 100 mM) (Rabinovich et al. (1999) J Exp Med 190, 385-397) or left untreated for 16 hours. Supernatants were then analyzed for IL-4, IL-5, IL-10, and IL-13 using cytometric bead array (CBA) Flex Set beads according to manufacturer's protocol (BD Biosciences, San Jose, Calif.). […] Thereafter, the PE detection reagent was added and samples were incubated for an additional 2 hours, washed and analyzed using FACS Aria Flow Cytometer (BD Biosciences). Results were captured with FACS Diva software and analyzed with the FCAP1.1 program (BD Biosciences). […]

[7] = test system: activated T cells; experiment: Analysis of regulatory T cells (CD4+ CD25high FOXP3+) by triple-color flow cytometry; type: cell-based, human; details: activated T cells treated with rGal1 or rGal1 and TDG, 24 hours; FIG. 3E
Experimental: T cells were purified, activated with anti-CD3- and anti-CD28-coated latex beads and treated with rGal1, rGal1 and TDG or left untreated for 24 hours. Thereafter, cells were stained with CD4-FITC and CD25-APC, washed, fixed, permeabilized and stained with FOXP3-PE antibody or rat IgG2b isotype control as previously described (Zorn et al. (2006) Blood 108, 1571-1579) (Human Regulatory T-cell staining kit, eBioscience, San Diego, Calif.). CD4^+ CD25^high FOXP3 Treg cells were identified and quantified using Beckman Cytomics FC500 flow cytometer as previously described (Zorn et al. (2006) Blood 108, 1571-1579).

[8] = test system: Th1-dependent responses; details: cited from earlier work; for Th1-dependent responses: murine models of chronic inflammatory / autoimmune disorders

Molecule | expression of GATA-3 (Th2-specific transcription factor) [1] | expression of T-bet (Th1-specific transcription factor) [1] | viable Th (CD4+) T cells [2] | viable total (CD3+) T cells [2] | Gal1 protein expression [3] | proliferation rate or viability of transduced HD-MY-Z cells [4] | IL-4 in supernatants [5] | IL-5 in supernatants [5] | IL-10 in supernatants [5] | IL-13 in supernatants [5] | apoptosis of total activated T cells [6] | CD4+ CD25high FOXP3+ Treg population [7] | cytokine profile ([8]; murine models of Th1-driven chronic inflammatory and autoimmune disorders) | Th1-dependent responses ([8]; listed as Gal1) | Th1-dependent responses ([8]; listed as recombinant Gal1) | T-cell susceptibility to activation-induced cell death ([8]; murine models of chronic inflammatory diseases)
Gal1 shRNA: pSIREN-RetroQ retroviral vector encoding Gal1-specific shRNA; target sequence GCTGCCAGATGGATACGAA (SEQ ID NO: 1) (DNA GATCCGCTGCCAGATGGATACGAATTCAAGAGATTCGTATCCATCTGGCAGCTTTTTTG) | higher expression of GATA-3 than CD4^+ T cells from Gal1 shRNA HD-MY-Z co-cultures | control (SCR) HD-MY-Z cells exhibited significantly lower expression of T-bet | significantly fewer viable total (CD3^+) and Th (CD4^+) T cells in control (SCR) HD-MY-Z co-cultures than in co-cultures of HD-MY-Z cells with Gal1 knockdown | significantly fewer viable total (CD3^+) and Th (CD4^+) T cells in control (SCR) HD-MY-Z co-cultures than in co-cultures of HD-MY-Z cells with Gal1 knockdown | can be blocked | did not alter |  |  |  |  |  |  |  |  |  | 
OC[C@H]1O[C@@H](S[C@@H]2O[C@H](CO)[C@H](O)[C@H](O)[C@H]2O)[C@H](O)[C@@H](O)[C@H]1O [TDG, thiodigalactoside, reference compound] |  |  |  |  |  |  | specifically blocked this effect | specifically blocked this effect | specifically blocked this effect | specifically blocked this effect | completely blocked rGal1-induced apoptosis | completely blocked this effect |  |  |  | 
rGal1: recombinant Gal1 (galectin-1), a glycan-binding protein |  |  |  |  |  |  | significantly higher amounts | significantly higher amounts | significantly higher amounts | significantly higher amounts | induced apoptosis | significantly increased | skewed towards Th2 cytokine profiles | dramatically suppressed | suppressed | increased

From patent US9206427B2, “Compositions, kits, and methods for the modulation of immune responses using galectin-1” (Dana-Farber Cancer Institute, Inc., priority 2007, dated 2015)
